Source: patent US20240139220A1, “TREATMENT OF HPV INFECTION” (priority 2022, published 2024)

Assay: Ex vivo permeation and penetration across porcine vaginal tissue (Franz diffusion cells, IVPT)
Type: in vitro ADME
Conditions: 0.1% dose; porcine and human tissues (FIG. 116)
Description: FIG. 116 is an in vitro tissue permeation test in vaginal tissue comparing Compound II to ABI-1968. […] Bars B and C show the tissue penetration of a 0.1% Compound II gel in […]. […] This may be a contributing factor to the performance of ABI-1968 in clinical studies. […] This is described in Example 41.
Freshly harvested porcine vaginal tissue was procured from local slaughterhouse in an ice box. The vaginal tissue was cut open to expose the mucosal surface and tissue was cleaned by gentle flow of PBS pH 7.4. The porcine vaginal tissue was cut into circular portions (approximately 2 cm^2) with help of a […] punch.
The circular portion of tissue was sandwiched between two chambers of a Franz diffusion cell with an active diffusion area of 1 cm^2, and the mucosal layer was exposed to the donor chambers. The resistance across porcine vaginal tissue was measured using a wave form generator to ensure the integrity of the tissue segment used for the permeation study. Porcine vaginal tissue with resistance of ≥3 KΩ.cm^2 was used for study. The receiver chamber was filled with 8 ml of 5% solutol PBS 7.4 pH, which was stirred at 600 rpm with a 3 mm magnetic stir bar and the temperature was maintained at 37° C. with a circulating water bath.
The ˜200 mg of gel was filled into tared 1 mL syringe and gel was dispensed to donor chamber. The gel was spread on to mucosal surface with pre weighed applicator. After loading and spreading of the gel onto surface of mucosal surface, the weight of 1 mL syringe and applicator was noted to determine the exact amount of gel loaded into donor chamber.
Time course (2 h, 4 h and 8 h) porcine vaginal permeation studies were performed. After loading gel, 500 μL samples were withdrawn from the receiver compartment at different time intervals and each time an equal volume of fresh receiver media was used to replace withdrawn samples. The sample withdrawn at each time interval were stored immediately in −20° C. until analysis. After 2, 4 and 8 h, the formulation was removed from the donor chamber with help of syringe and cleaned with cotton swab. The tissue was removed and washed gently with wash solution (50% methanol in water) 5 times and alternatively cleaning with cotton swab.
An 8 mm punch of active diffusion area of washed porcine vaginal tissue was removed, weighed and transferred into a tube. This tube was immediately placed into dry ice for ˜15 min. After specified time, tissue was removed and placed in precooled dish. The tissue was minced into smaller pieces on a dish with a precooled surgical blade. The minced tissue was transferred to sample tubes and dish was rinsed with 1 ml of 5% solutol in PBS 7.4 pH and transferred to same tissue sample tube. These tubes were stored in −70° C. until analysis.
The samples stored at −20° C. was removed and thawed at room temperature for 30 min. The drug from receptor fluid was centrifuged at 13000 rpm for 5 min and to 200 μL of supernatant equal volume of extraction solvent was added. These samples were centrifuged at 13000 rpm for 5 min and supernatant was transferred into vials for analysis.
The minced tissue samples stored at −70° C. were removed and thawed at room temperature for ˜90 min. The samples were kept for shaking at room temperature for 4 h in BioShaker. After 4 h, samples were centrifuged at 13000 rpm for 5 min. To 100 μL of supernatant, 400 μL of extraction solvent was added and vortexed for 2 min. […]

With `CCOC(=O)[C@H](C)NP(=O)(COCCn1cnc2c(OC)nc(N)nc21)OCc1ccccc1.O=C(O)/C=C/C(=O)O` (mixture of isomers) [Compound I monofumarate, (±)-(2S)-ethyl-2-((((2-(2-amino-6-methoxy-9H-purin-9-yl)-ethoxy)-methyl)-(benzyloxy)-phosphoryl)-amino)-propionate monofumarate] the “Concentration in vaginal tissue” value was 40 to 85 ng/mL.
